In brackets after ≈: the same amount, converted by molar mass. Several values for one entry are separate records, joined by “and”; a condition that tells them apart may be missing. Equal values may be shown once. Read-outs that look alike come from different tables or passages of the source.
Key:
Prevotella intermedia = assay: Agar dilution MIC, anaerobes; format: cell-based
Clostridium perfringens = assay: microbe, parasite or virus in culture; format: cell-based
Ent. faecalis ATCC 29212 = assay: MIC, agar incorporation method
[1] = test system: Porphyromonas asaccharolytica; assay: Agar dilution MIC, anaerobes; format: cell-based
MRSA 33 = assay: MIC, agar incorporation method
Strep. pne. ATCC 6303 = assay: MIC, agar incorporation method
[2] = test system: MRSE 879 adherent bacteria; assay: Sintered glass adherent bacteria model; conditions: MRSE 879, sintered glass adherent bacteria model
Eubacterium leutum = assay: Agar dilution MIC, anaerobes; format: cell-based
MRSA 15187 = assay: MIC, agar incorporation method
VRE 6A (Ent. faecium 6A) = assay: MIC, agar incorporation method
Clostridium difficile = assay: Agar dilution MIC, anaerobes; format: cell-based; conditions: for MIC Clostridium difficile: single isolates, anaerobic agar dilution
S. pneum AB 34 = assay: MIC, agar incorporation method
Bacteroides fragilis = assay: Agar dilution MIC, anaerobes; format: cell-based
[3] = test system: Mycobacterium avium intracellulare; assay: Agar dilution method, mycobacteria; format: cell-based
Fusobacterium necrogenes = assay: Agar dilution MIC, anaerobes; format: cell-based
[4] = test system: Peptostreptococcus tetradius; assay: Agar dilution MIC, anaerobes; format: cell-based
Strep. pyog. ATCC 19615 = assay: MIC, agar incorporation method
Prevotella bivia = assay: Agar dilution MIC, anaerobes; format: cell-based
anaerobic bacteria = assay: Agar dilution method for anaerobic bacteria, summary; format: cell-based
[5] = Changes in MIC under different conditions: broth MIC; format: cell-based; conditions: strain not given
[6] = test system: Peptostreptococcus asaccharolyticus; assay: Agar dilution MIC, anaerobes; format: cell-based; conditions: single isolates, anaerobic agar dilution
P. acnes = assay: Agar dilution MIC, anaerobes; format: cell-based; conditions: for MIC P. acnes: single isolates, anaerobic agar dilution
MRSE 879 = assay: Broth MIC, MRSE 879; format: cell-based
[7] = Changes in MIC under different conditions: agar MIC; format: cell-based; conditions: strain not given
[8] = test system: MRSA 1029/99 and MRSE 879/247; assay: Inhibition of biofilm (slime) production; format: cell-based; conditions: trypticase soy broth with 2% glucose, overnight 37° C., safranin OD 544 nm
Method: To study the effect of Compound No. 16 on the inhibition of biofilm production, the following study was carried out. […] Bacterial suspensions (in triplicate) were exposed to doubling dilution of antibiotics and incubated overnight at 37° C. with constant shaking (100 rpm). Next day, after aspirating the medium, biofilm was stained with safranin (0.1%) for 1 hour at room temperature, washed with distilled water, tapped dried and stain extracted into 200 μl of 0.2M NaoH and OD measured at 544 nm. Relative inhibition was determined by using the formula: […]

S. aureus ATCC 25923 = assay: MIC, agar incorporation method; conditions: agar incorporation
Clostridium camis = assay: Agar dilution MIC, anaerobes; format: cell-based
Porphyromonas gingivalis = assay: Agar dilution MIC, anaerobes; format: cell-based
[9] = test system: Mycobacterium tuberculosis
Fusobacterium montiferum = assay: Agar dilution MIC, anaerobes; format: cell-based
S. pneumoniae = assay: Summary of in vitro activity (MIC); conditions: Streptococcus pneumoniae
[10] = test system: Peptostreptococcus magnum; assay: Agar dilution MIC, anaerobes; format: cell-based
[11] = test system: Peptostreptococcus prevotii; assay: Agar dilution MIC, anaerobes; format: cell-based; conditions: Anaerococcus prevotii, read-out: MIC Peptostreptococcus prevotii
E. faecalis = assay: Summary of in vitro activity (MIC); conditions: Enterococcus faecalis
[12] = test system: Prevotella melaninogenica; assay: Agar dilution MIC, anaerobes; format: cell-based; conditions: Prevotella melaninogenica, read-out: MIC Prevotella melaninogenica
MRSA 562 [13] = assay: MIC, agar incorporation method; conditions: Staphylococcus aureus, MRSA
[14] = test system: Prevotella (Bacteroides) disiens; assay: Agar dilution MIC, anaerobes; format: cell-based; conditions: read-out: MIC Prevotella (Bacteroides) disiens
Fusobacterium nucleatum = assay: Agar dilution MIC, anaerobes; format: cell-based; conditions: Fusobacterium nucleatum, read-out: MIC Fusobacterium nucleatum
[15] = test system: Peptostreptococcus micros; assay: Agar dilution MIC, anaerobes; format: cell-based; conditions: Parvimonas micra, read-out: MIC Peptostreptococcus micros
Fusobacterium varium = assay: Agar dilution MIC, anaerobes; format: cell-based; conditions: Fusobacterium varium, read-out: MIC Fusobacterium varium
G +ve bacteria = assay: Summary of in vitro activity (MIC)
MRSA 562 [16] = assay: In vivo activity against MRSA 562 (ED50); parameters: species or system Methicillin Resistant Staphylococcus aureus; conditions: IV; MRSA 562 infection
S. aureus = assay: Summary of in vitro activity (MIC); conditions: Staphylococcus aureus
[17] = single isolates, anaerobic agar dilution
[18] = single isolate, anaerobic agar dilution
[19] = anaerobes, Wilkins Chalgren agar, 48 hour

With CC(=O)NC[C@H]1CN(c2ccc(N3CCN(Cc4ccc([N+](=O)[O-])o4)CC3)c(F)c2)C(=O)O1.Cl [Compound No. 16] the “MIC Prevotella intermedia” value (Prevotella intermedia; [17]) was 0.016 µg/mL, the “MIC Clostridium perfringens” value (Clostridium perfringens; [17]) was 0.03 µg/mL and the “MIC E. faecalis 29212” value (Ent. faecalis ATCC 29212; agar incorporation) was 2 µg/mL. The “MIC Porphyromonas asaccharolytica” value [1, 18] was “<=.008 μg/ml”, the “MIC MRSA 33” value (MRSA 33; agar incorporation) was 4 µg/mL and the “MIC S. pneum 6303” value (Strep. pne. ATCC 6303; agar incorporation) was 1 µg/mL. The “concentration which would kill adherent bacteria” value [2] was 2 µg/mL, the “MIC Eubacterium leutum” value (Eubacterium leutum; [17]) was “<=.008 μg/ml” and the “MIC MRSA 15187” value (MRSA 15187; agar incorporation) was 4 µg/mL. The “MIC VRE 6A” value (VRE 6A (Ent. faecium 6A); agar incorporation) was 4 µg/mL, the “MIC Clostridium difficile” value (Clostridium difficile) was 0.03 µg/mL and the “MIC S. pneum AB 34” value (S. pneum AB 34; agar incorporation) was 1 µg/mL. For the same compound, the “MIC Bacteroides fragilis” value (Bacteroides fragilis; [17]) was 0.03 µg/mL and 0.06 µg/mL, the MIC50 ([3]; Middlebrook 7H10 agar, 21 days) was 8 µg/mL and the MIC90 ([3]; Middlebrook 7H10 agar, 21 days) was 32 µg/mL. The G.M. ([3]; geometric mean MIC) was 8.52 µg/mL, the “MIC Fusobacterium necrogenes” value (Fusobacterium necrogenes; [18]) was “<=.008 μg/ml” and the “MIC Peptostreptococcus tetradius” value [4, 17] was “<=.008 μg/ml”. For the same compound, the “MIC S. pyogenes 19615” value (Strep. pyog. ATCC 19615; agar incorporation) was 0.5 µg/mL, the “MIC Prevotella bivia” value (Prevotella bivia; [18]) was 0.125 µg/mL and the “Geometric Mean” value (anaerobic bacteria; anaerobes) was 0.037 µg/mL. For the same compound, the “MIC Range” value (anaerobic bacteria; anaerobes) was 0.004 to 1 µg/mL, the MIC50 (anaerobic bacteria; [19]) was 0.032 µg/mL and the MIC90 (anaerobic bacteria; [19]) was 0.25 µg/mL. For the same compound, the “Broth MIC +50% Sheep serum” value [5] was 2 µg/mL, the “Broth MIC Normal MH broth” value [5] was 2 µg/mL and the “MIC Peptostreptococcus asaccharolyticus” value [6] was “<=.008 μg/ml”. For the same compound, the “MIC P. acnes” value (P. acnes) was 1 µg/mL, the “broth MIC” value (MRSE 879; MRSE 879) was 0.5 µg/mL and the “Agar MIC” value [7] was 2 µg/mL. For the same compound, the “Formation of biofilm inhibition” value [8] was “occurs at lower a concentration”, the “MIC S. aureus 25923” value (S. aureus ATCC 25923) was 2 µg/mL and the “MIC Clostridium camis” value (Clostridium camis; [17]) was 0.03 µg/mL and 0.016 µg/mL. The “MIC Porphyromonas gingivalis” value (Porphyromonas gingivalis; [18]) was “<=.008 μg/ml”, the MIC50 ([9]; Middlebrook 7H10 agar, 21 days) was 4 µg/mL and the MIC90 ([9]; Middlebrook 7H10 agar, 21 days) was 64 µg/mL. For the same compound, the G.M. ([9]; geometric mean MIC) was 5.44 µg/mL and the “MIC Fusobacterium montiferum” value (Fusobacterium montiferum; [17]) was 0.03 µg/mL.

In the case of CN[C@H](CC(C)C)C(=O)N[C@H]1C(=O)N[C@@H](CC(N)=O)C(=O)N[C@H]2C(=O)N[C@H]3C(=O)N[C@H](C(=O)N[C@H](C(=O)O)c4cc(O)cc(O)c4-c4cc3ccc4O)[C@H](O)c3ccc(c(Cl)c3)Oc3cc2cc(c3O[C@@H]2O[C@H](CO)[C@@H](O)[C@H](O)[C@H]2O[C@H]2C[C@](C)(N)[C@H](O)[C@H](C)O2)Oc2ccc(cc2Cl)[C@H]1O [Vancomycin], the MIC (Prevotella intermedia; Prevotella intermedia, read-out: MIC Prevotella intermedia) is reported as greater than 16 µg/mL, the MIC50 (S. pneumoniae) is reported as 0.5 µg/mL (≈ 0.345 µM) and the MIC90 (S. pneumoniae) is reported as 0.5 µg/mL (≈ 0.345 µM). It also gave an MIC (S. pneumoniae; read-out: Geometric Mean of in vitro activity (MIC)) of 0.39 µg/mL (≈ 0.269 µM), an MIC (Clostridium perfringens; Clostridium perfringens, read-out: MIC Clostridium perfringens) of 0.5 µg/mL (≈ 0.345 µM) and an MIC (Ent. faecalis ATCC 29212; Enterococcus faecalis, ATCC29212, read-out: MIC E. faecalis 29212) of 4 µg/mL (≈ 2.76 µM). The MIC ([1]; Porphyromonas asaccharolytica, read-out: MIC Porphyromonas asaccharolytica) was 2 µg/mL (≈ 1.38 µM), the MIC ([10]; Peptostreptococcus, read-out: MIC Peptostreptococcus magnum, single isolates, anaerobic agar dilution) was 0.5 µg/mL (≈ 0.345 µM) and the “MIC Peptostreptococcus magnum” value [10, 17] was 0.25 µg/mL (≈ 0.173 µM). For the same compound, the MIC (MRSA 33; Staphylococcus aureus, MRSA, read-out: MIC MRSA 33) was 0.5 µg/mL (≈ 0.345 µM), the MIC (Strep. pne. ATCC 6303; Streptococcus pneumoniae, ATCC6303, read-out: MIC S. pneum 6303) was 0.5 µg/mL (≈ 0.345 µM) and the “concentration which would kill adherent bacteria” value [2] was 8 µg/mL. It also gave an MIC [11] of 0.125 µg/mL (≈ 0.0863 µM), an MIC (Eubacterium leutum; Eubacterium, read-out: MIC Eubacterium leutum) of 1 µg/mL (≈ 0.69 µM) and an MIC (MRSA 15187; Staphylococcus aureus, MRSA, read-out: MIC MRSA 15187) of 0.5 µg/mL (≈ 0.345 µM). The MIC (VRE 6A (Ent. faecium 6A); Enterococcus, VRE, read-out: MIC VRE 6A) was greater than 16 µg/mL, the MIC (Clostridium difficile; Clostridioides difficile, read-out: MIC Clostridium difficile, single isolates, anaerobic agar dilution) was 2 µg/mL (≈ 1.38 µM) and the “MIC Clostridium difficile” value (Clostridium difficile) was 4 µg/mL (≈ 2.76 µM). For the same compound, the MIC (S. pneum AB 34; Streptococcus pneumoniae, AB34, read-out: MIC S. pneum AB 34) was 0.25 µg/mL (≈ 0.173 µM), the MIC50 (E. faecalis) was 16 µg/mL (≈ 11 µM) and the MIC90 (E. faecalis) was 16 µg/mL (≈ 11 µM). For the same compound, the MIC [12] was greater than 16 µg/mL, the MIC (Bacteroides fragilis; Bacteroides fragilis, read-out: MIC Bacteroides fragilis) was greater than 16 µg/mL and the MIC (MRSA 562 [13]) was 0.5 µg/mL (≈ 0.345 µM). For the same compound, the MIC (MRSA 562 [13]; read-out: MIC MRSA 562) was 0.5 µg/mL (≈ 0.345 µM), the MIC [14] was greater than 16 µg/mL and the MIC (Fusobacterium necrogenes; Fusobacterium necrogenes, read-out: MIC Fusobacterium necrogenes) was greater than 16 µg/mL. For the same compound, the MIC ([4]; Anaerococcus tetradius, read-out: MIC Peptostreptococcus tetradius) was 1 µg/mL (≈ 0.69 µM), the MIC (Strep. pyog. ATCC 19615; Streptococcus pyogenes, ATCC19615, read-out: MIC S. pyogenes 19615) was 0.5 µg/mL (≈ 0.345 µM) and the MIC (Prevotella bivia; Prevotella bivia, read-out: MIC Prevotella bivia) was greater than 16 µg/mL. The MIC50 (anaerobic bacteria; 48 h) was 32 µg/mL (≈ 22.1 µM), the MIC90 (anaerobic bacteria; 48 h) was 32 µg/mL (≈ 22.1 µM) and the “Geometric Mean” value (anaerobic bacteria; anaerobes) was 9.306 µg/mL. The “MIC Range” value (anaerobic bacteria; anaerobes) was 0.5 to 32 µg/mL, the “Broth MIC +50% Sheep serum” value [5] was 1 µg/mL and the “Broth MIC Normal MH broth” value [5] was 1 µg/mL. For the same compound, the MIC (P. acnes; Cutibacterium acnes, read-out: MIC P. acnes, single isolates, anaerobic agar dilution) was 0.5 µg/mL (≈ 0.345 µM), the “MIC P. acnes” value (P. acnes) was 1 µg/mL (≈ 0.69 µM) and the MIC (MRSE 879; Staphylococcus epidermidis, MRSE, read-out: broth MIC) was 1 µg/mL (≈ 0.69 µM). For the same compound, the “Agar MIC” value [7] was 1 µg/mL, the MIC (Fusobacterium nucleatum) was greater than 16 µg/mL and the MIC (Clostridium camis; Clostridium, read-out: MIC Clostridium camis) was 2 µg/mL (≈ 1.38 µM). The MIC [15] was 1 µg/mL (≈ 0.69 µM), the MIC (Porphyromonas gingivalis; Porphyromonas gingivalis, read-out: MIC Porphyromonas gingivalis) was 8 µg/mL (≈ 5.52 µM) and the MIC (Fusobacterium varium) was greater than 16 µg/mL. It also gave an MIC50 (G +ve bacteria) of 0.5 µg/mL (≈ 0.345 µM), an MIC90 (G +ve bacteria) of 16 µg/mL (≈ 11 µM) and an MIC (Fusobacterium montiferum; Fusobacterium, read-out: MIC Fusobacterium montiferum) greater than 16 µg/mL. The “ED50 (mg/kg body weight)” value (MRSA 562 [16]) was 8.84 (IV) mg/kg body weight, the MIC50 (S. aureus) was 1 µg/mL (≈ 0.69 µM) and the MIC90 (S. aureus) was 1 µg/mL (≈ 0.69 µM).
